Tested on: oxidative stress
Test: oxidative stress in vitro model
Format: cell-based
Details: pterostilbene compared with resveratrol

Oc1ccc(C=Cc2cc(O)cc(O)c2)cc1 [resveratrol]
treatment of oxidative stress: comparable

Source: US20180272042A1, “DRUG-POLYMER FILM FOR CONTROLLED LOCAL DELIVERY AT TISSUE-DEVICE INTERFACE” (Brown University, priority 2017, published 2018)
